The record followed here is PubChem BioAssay AID180 (DTP/NCI, 2004).

The test system of this assay is BDF1 mice, Adenocarcinoma 755 s.c., tumor weight T/C. Put plainly: NCI In Vivo Anticancer Drug Screen. Data for tumor model Adenocarcinoma 755 (subcutaneous) in B6D2F1 (BDF1) mice. The following applies: endpoint: mean tumor weight, schedule: Q01DX011 (ip), higher = larger tumour. Put shortly:
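Tumor-bearing mice receive test compound while controls get vehicle alone. Antitumor effect is scored from survival or tumor dimensions as a T/C quotient.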

The mark [1] stands for this setting: dose: 60.0 mg/kg/injection, vehicle: carboxymethylcellulose (CMC).
[2] abbreviates: dose: 120.0 mg/kg/injection, vehicle: carboxymethylcellulose (CMC).
Where [3] appears, read: dose: 18.75 mg/kg/injection, vehicle: methylcellulose (MC).
Where [4] appears, read: dose: 37.5 mg/kg/injection, vehicle: methylcellulose (MC).
Where [5] appears, read: dose: 12.5 mg/kg/injection, vehicle: methylcellulose (MC).
Where [6] appears, read: dose: 25.0 mg/kg/injection, vehicle: methylcellulose (MC).
[7] abbreviates: dose: 15.0 mg/kg/injection, vehicle: methylcellulose (MC).
Where [8] appears, read: dose: 31.0 mg/kg/injection, vehicle: methylcellulose (MC).
The mark [9] stands for this setting: dose: 22.5 mg/kg/injection, vehicle: carboxymethylcellulose (CMC).
The mark [10] stands for this setting: dose: 30.0 mg/kg/injection, vehicle: carboxymethylcellulose (CMC).
[11] abbreviates: dose: 45.0 mg/kg/injection, vehicle: carboxymethylcellulose (CMC).
[12] abbreviates: dose: 100.0 mg/kg/injection, vehicle: carboxymethylcellulose (CMC).
Where [13] appears, read: dose: 75.0 mg/kg/injection, vehicle: methylcellulose (MC).

Where “and” joins values, the source holds several entries; their conditions need not be identical. Equal values may be shown once.

A word on the T/C: it is the ratio of treated to control. With `CCC(C)Cn1cnc2c(SCc3ccccn3)nc(N)nc21` (stereo unspecified), the T/C was 37 % of control (dose: 16.2 mg/kg/injection, vehicle: methylcellulose (MC)); 32 % of control (dose: 32.5 mg/kg/injection, vehicle: methylcellulose (MC)); 23 % of control and 29 % of control (dose: 65.0 mg/kg/injection, vehicle: methylcellulose (MC)).
For `CC(=O)OCC1OC(n2cnc3c(=O)[nH]cnc32)CC1OC(C)=O` (stereo unspecified), the T/C is 75 % of control and 78 % of control under setting [1]; 86 % of control under setting [2].
On to `NOCC(=O)O`, for which the T/C was 62 % of control (dose: 6.25 mg/kg/injection, vehicle: water); 54 % of control (dose: 12.5 mg/kg/injection, vehicle: other); 68 % of control and 70 % of control (dose: 12.5 mg/kg/injection, vehicle: water); 65 % of control (dose: 18.75 mg/kg/injection, vehicle: other); 29 % of control (dose: 25.0 mg/kg/injection, vehicle: water).
On to `O=P(N1CCCCCC1)(N1CC1)N1CC1`, for which the T/C reads like this: (dose: 1.0 mg/kg/injection, vehicle: methylcellulose (MC)) 95 % of control; (dose: 2.0 mg/kg/injection, vehicle: methylcellulose (MC)) 68 % of control; (dose: 4.0 mg/kg/injection, vehicle: methylcellulose (MC)) 48 % of control; (dose: 8.0 mg/kg/injection, vehicle: methylcellulose (MC)) 28 % of control.
On to `Nc1nc(SCc2ccc(Cl)cc2Cl)c2ncn(C3OC(CO)C(O)C3O)c2n1` (stereo unspecified), for which the T/C reads like this: (dose: 4.69 mg/kg/injection, vehicle: methylcellulose (MC)) 51 % of control; (dose: 9.38 mg/kg/injection, vehicle: methylcellulose (MC)) 49 % of control; under setting [3], 21 % of control; under setting [4], 2 % of control.
Turning to `OCC1OC(n2cnc3c(I)ncnc32)C(O)C1O` (stereo unspecified), the T/C reads like this: (dose: 30.0 mg/kg/injection, vehicle: saline) 73 % of control; (dose: 60.0 mg/kg/injection, vehicle: saline) 73 % of control; (dose: 120.0 mg/kg/injection, vehicle: saline) 49 % of control; (dose: 240.0 mg/kg/injection, vehicle: saline) 29 % of control.
On to `CCCCn1cnc2c(SCc3ccccc3F)nc(N)nc21`, for which the T/C was 81 % of control (dose: 6.25 mg/kg/injection, vehicle: methylcellulose (MC)); 41 % of control under setting [5]; 18 % of control under setting [6]; 3 % of control (dose: 50.0 mg/kg/injection, vehicle: methylcellulose (MC)); 5 % of control (dose: 100.0 mg/kg/injection, vehicle: methylcellulose (MC)).
For the compound `CC(C)Cn1cnc2c(=S)nc(N)[nH]c21`, under “dose: 3.9 mg/kg/injection, vehicle: methylcellulose (MC)”, the T/C is 5 % of control.
On to `Cc1cc(Nc2cccc(Cl)c2)nc(N)n1`, for which the T/C under setting [7] is 114 % of control and the T/C under setting [8] is 56 % of control.
Regarding `CN(N=O)C(=O)C1CC(=O)NC(=O)C1`, the T/C (dose: 2.5 mg/kg/injection, vehicle: carboxymethylcellulose (CMC)) was 39 % of control; the T/C (dose: 5.0 mg/kg/injection, vehicle: carboxymethylcellulose (CMC)) is 102 % of control; the T/C (dose: 10.0 mg/kg/injection, vehicle: carboxymethylcellulose (CMC)) is 114 % of control.
Take `CCOCCNS(=O)(=O)c1ncnc2nc[nH]c12`: the T/C (dose: 11.2 mg/kg/injection, vehicle: carboxymethylcellulose (CMC)) is 53 % of control; the T/C under setting [9] was 9 % of control; the T/C under setting [10] was 2 % of control; the T/C under setting [11] is 3 % of control; the T/C under setting [1] was 1 % of control.
In the case of `Cc1ccc(N2CCN(CCCN3CCN(c4ccccc4Cl)CC3)CC2)cc1`, the T/C reads like this: (dose: 6.0 mg/kg/injection, vehicle: carboxymethylcellulose (CMC)) 84 % of control; (dose: 11.0 mg/kg/injection, vehicle: methylcellulose (MC)) 29 % of control; (dose: 12.0 mg/kg/injection, vehicle: carboxymethylcellulose (CMC)) 64 % of control; (dose: 22.0 mg/kg/injection, vehicle: methylcellulose (MC)) 34 % of control; under setting [9], 50 % of control and 55 % of control; (dose: 22.5 mg/kg/injection, vehicle: other) 93 % of control. The T/C is 65 % of control (dose: 24.0 mg/kg/injection, vehicle: carboxymethylcellulose (CMC)); 50 % of control and 59 % of control under setting [11]; 12 % of control (dose: 45.0 mg/kg/injection, vehicle: methylcellulose (MC)); 69 % of control (dose: 45.0 mg/kg/injection, vehicle: other); 63 % of control (dose: 48.0 mg/kg/injection, vehicle: carboxymethylcellulose (CMC)); 43 % of control and 62 % of control (dose: 90.0 mg/kg/injection, vehicle: carboxymethylcellulose (CMC)). The T/C (dose: 96.0 mg/kg/injection, vehicle: carboxymethylcellulose (CMC)) is 43 % of control.
With `Nc1nc(SCc2ccc(F)cc2)c2ncn(C3OC(CO)C(O)C3O)c2n1` (stereo unspecified), the T/C by setting is: (dose: 3.1 mg/kg/injection, vehicle: methylcellulose (MC)) 86 % of control; (dose: 6.2 mg/kg/injection, vehicle: methylcellulose (MC)) 59 % of control; under setting [5], 19 % of control; under setting [6], 11 % of control.
In the case of `CCCCCCCCCCCCCCCCCCNC`, the T/C (dose: 14.0 mg/kg/injection, vehicle: carboxymethylcellulose (CMC)) is 77 % of control.
With `Nc1nc2c(nc(Br)n2C2OC(CO)C(O)C2O)c(=O)[nH]1` (stereo unspecified), the T/C is 82 % of control under setting [10], 43 % of control under setting [1] and 17 % of control under setting [2].
`CCCCn1cnc2c(SC3CCCC3)ncnc21`: the T/C by setting is: (dose: 25.0 mg/kg/injection, vehicle: carboxymethylcellulose (CMC)) 38 % of control; (dose: 50.0 mg/kg/injection, vehicle: carboxymethylcellulose (CMC)) 13 % of control; under setting [12], 4 % of control; (dose: 200.0 mg/kg/injection, vehicle: carboxymethylcellulose (CMC)) 3 % of control.
Turning to `S=c1nc[nH]c2c1ncn2C1CCCS1` (stereo unspecified), the T/C is, setting by setting: under setting [13], 114 % of control; (dose: 225.0 mg/kg/injection, vehicle: methylcellulose (MC)) 43 % of control.
Consider `CN(C)N=Nc1ccc(C(=O)NN)cc1`, for which the T/C (dose: 75.0 mg/kg/injection, vehicle: carboxymethylcellulose (CMC)) was 31 % of control and the T/C under setting [12] is 15 % of control.
Take `O=C(O)CCC(=O)CCl`: the T/C (dose: 34.0 mg/kg/injection, vehicle: methylcellulose (MC)) is 46 % of control.
On to `Cc1ccc(CSc2ncnc3nc[nH]c23)cc1C`, for which the T/C was 48 % of control under setting [3]; 41 % of control under setting [4]; 32 % of control under setting [13]; 7 % of control (dose: 150.0 mg/kg/injection, vehicle: methylcellulose (MC)).
As for `Cn1ccc(N)nc1=O`, the T/C is 88 % of control under setting [7]; 108 % of control under setting [8]; 98 % of control (dose: 62.0 mg/kg/injection, vehicle: methylcellulose (MC)); 84 % of control (dose: 125.0 mg/kg/injection, vehicle: methylcellulose (MC)).
